Values after ≈ are worked out from the molar mass of the structure shown. Like-named read-outs stand apart in the source and are kept apart here.

Series [1] has as its target T1, LTC4 synthase (Homo sapiens, UniProt Q16873).
T1 sequence (Q16873 1-150): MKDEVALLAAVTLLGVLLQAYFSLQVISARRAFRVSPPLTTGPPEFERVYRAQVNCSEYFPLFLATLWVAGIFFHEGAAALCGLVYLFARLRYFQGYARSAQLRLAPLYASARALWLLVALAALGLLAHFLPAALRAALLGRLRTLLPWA
Put plainly: Test 1 in vitro assay: LTC4 synthase converts LTA4 to LTC4, HTRF detection. The class given is biochemical. Further details: made in house; host or cells: Pichia pastoris. As to conditions: Test 1 (unless otherwise indicated). The method, then: In the assay, LTC4 synthase catalyses the reaction where the substrate LTA4 is converted to LTC4. Recombinant human LTC4 synthase is expressed in Piccia pastoralis and the purified enzyme is dissolved in 25 mM tris-buffer pH 7.8 supplemented with 0.1 mM glutathione (GSH) and stored at −80° C. The assay is performed in phosphate buffered saline (PBS) pH 7.4 and 5 mM GSH in 384-well plates.
The following is added chronologically to each well:
1. 48 μL LTC4 synthase in PBS with 5 mM GSH. The total protein concentration in this solution is 0.5 μg/mL. 2. 1 μL inhibitor in DMSO (final concentration 10 μM). 3. Incubation of the plate at room temperature for 10 min. 4. 1 μL LTA4 (final concentration 2.5 μM). 5. Incubation of the plate at room temperature for 5 min. 6. 10 μL of the incubation mixture is analysed using homogenous time resolved fluorescent (HTRF) detection.
IC50 values for title compounds of the examples are depicted in the tables hereinafter (where, they are the values obtained using Test 1, unless otherwise indicated).

Series [2] in a line: Thermodynamic aqueous solubility in USP phosphate buffer (Example 25). The class given is physicochemical. As to conditions: USP phosphate buffer pH 7.4, 24 h at 20° C., LC-MS/MS, read-out: Thermodynamic aq solubility. The protocol: The method described here was developed to accurately determine the aqueous solubility of compounds of the invention in buffer solution at a given pH.
Solid material (1 mg) of test compound is added to a glass vial followed by 1 ml of buffer solution (pH 7.4 if another pH not is stated). The solution is left on an orbital shaker for 24 h at 20° C. After incubation, the remaining solid material is separated from solution and the solubility is quantified using LC-MS/MS.
Prepare 0.2 M monobasic potassium phosphate solution by dissolving 27.22 g of KH2PO4 (MW=136.09 g/mol) in water, dilute with water to 1000 mL.
Add 250 mL of the monobasic potassium phosphate solution in a 1000 mL volumetric flask together with 195.5 mL 0.2M NaOH (aq). Add water to 1000 mL. Check pH.
Compounds of the invention/examples to be tested were provided as solid material, weighed into glass vials (2 mL). Each vial contains approximately 1 mg solid compound, two vials/compound are prepared, i.e. duplicate samples of each compound. If a freshly prepared 10 mM DMSO stock solution was available, this solution was used for MS optimization and preparation of standards. If a DMSO-stock solution was not available, a 10 mM solution from solid material 1 mg was prepared.
• Test compounds are employed as solid material. Since duplicate samples are prepared for each compound, each test compound arrives in two vials (1+1 mg). Samples are denoted as sample 1 and 2. • Note amount of substance in each vial. Add USP phosphate buffer pH 7.4 (1 mL) to each sample vial and seal vials using screw caps. Determine whether the solutions are saturated or if compounds are dissolved, note appearance and time. Start incubation; the samples are incubated on an orbital shaker (450 rpm) at 20° C. for 24 hours.
• Take out the 1 mM DMSO-stock solutions of compounds that are to be tested from freezer. If no 1 mM solutions are available, use master solutions with concentration of 10 mM. Allow the solutions to thaw at rt. • Collect two 96-deep well plates, glass inserts, sealing film, and an 8-channel expandable pipette with tall tips. • Abort shaking after 24 hour. • Note if samples are saturated or if compounds have dissolved. • Transfer 720 μL of sample slurry from each sample vial into glass inserts in a 96-deep well plate using an 8-channel expandable pipette. Samples 1 and 2 are transferred to separate plates. Thus, all samples 1 are placed in one plate and all samples 2 in the second plate. • Seal the plates using sealing film. • Centrifuge the plates at 3000 rpm for 15 min at rt. Set acceleration to 9 and brake to 7 (9=fastest acc/brake, 0=slowest acc/brake). • Transfer the supernatants to new glass inserts using an 8-channel pipette, centrifuge samples a second time. • Repeat the procedure above, i.e. centrifuge samples a third time. • After the third centrifugation, transfer supernatant to glass vials, seal vials with screw caps. Control that the solutions are clear and that no particles are present in sample. If solid material is observed, an additional centrifugation step is performed. • Standards are prepared from DMSO-stock solutions (1 or 10 mM). For each compound, transfer […] 1 mM solution to a glass vial, add DMSO (90 μL) to reach a final concentration of 100 μM, seal with screw cap and mix solution quickly on a vortex mixer. Further dilute the 100 μM solution with a 1:1 mixture of acetonitrile and USP phosphate buffer (pH 7.4) to standards with concentration 1000, 500, 100, 25, 2, and 1 nM. Standards are prepared in test tubes.
• Place standards in autosampler. • Try out the dilution of solubility samples so that their response will be within the standard curve. Dilute solubility sample one (or two) with the 1:1 mixture of acetonitrile:buffer. […]

Where [3] appears, read: aqueous buffer, thermodynamic from solid.

In turn, `O=C(c1ccc(C(=O)c2cccc(O)c2)c(C(=O)O)c1)c1ccc(N(CC2CC2)c2ccc(Cl)cc2)cn1` [Example 14, 5-(5-((4-Chlorophenyl)(cyclopropylmethyl)amino)picolinoyl)-2-(3-hydroxybenzoyl)benzoic acid] displayed an IC50 in series [1] (Table 2) of 30 nM. For the same compound, in series [2] (setting [3]), the solubility (thermodynamic) at 24 h came to 1210 µM (≈ 637 µg/mL).
Consider `CN(c1ccc(Cl)cc1)c1ccc(C(=O)c2ccc(C(=O)C3(c4ccccc4)CC3)c(C(=O)O)c2)nc1` [1:19, 5-{5-[(4-Chlorophenyl)(methyl)amino]picolinoyl}-2-(1-phenylcyclopropyl-carbonyl)benzoic acid], for which, in series [2] (setting [3]), the solubility (thermodynamic) at 24 h was found to be 680 µM (≈ 347 µg/mL).
In the case of `CN(c1ccc(Cl)cc1)c1ccc(C(=O)c2ccc(C(=O)c3ccccc3)c(C(=O)O)c2)nc1` [Example 1:1, 2-Benzoyl-5-{5-[(4-chlorophenyl)(methyl)amino]picolinoyl}benzoic acid], the solubility (thermodynamic) at 24 h in series [2] (setting [3]) is 2580 µM (≈ 1210 µg/mL).
In the case of `COc1cccc(C(=O)c2ccc(C(=O)c3ccc(N(CC4CC4)c4ccc(Cl)cc4)cn3)cc2C(=O)O)c1` [Example 13, 5-(5-((4-Chlorophenyl)(cyclopropylmethyl)amino)picolinoyl)-2-(3-methoxybenzoyl)benzoic acid], inhibition in series [1] (Table 2) was half-maximal at 18 nM (IC50).
Still for that read-out and setting: then `CN(c1ccc(Cl)cc1)c1ccc(C(=O)c2ccc(C(=O)CC3CCCC3)c(C(=O)O)c2)nc1` [Example 20, 5-(5-((4-Chlorophenyl)(methyl)amino)picolinoyl)-2-(2-cyclopentylacetyl)benzoic acid], with 81 nM.
In the case of `CCCCCCC(=O)c1ccc(C(=O)c2ccc(N(C)c3ccc(Cl)cc3)cn2)cc1C(=O)O` [1:17, 5-{5-[(4-Chlorophenyl)(methyl)amino]picolinoyl}-2-heptanoylbenzoic acid], the solubility (thermodynamic) at 24 h in series [2] (setting [3]) came out at 153 µM (≈ 73.3 µg/mL).
For `CN(c1ccc(Cl)cc1)c1ccc(C(=O)c2ccc(C(=O)CC(C)(C)C)c(C(=O)O)c2)nc1` [Example 17, 5-(5-((4-Chlorophenyl)(methyl)amino)picolinoyl)-2-(3,3-dimethylbutanoyl)benzoic acid], the IC50 in series [1] (Table 2) worked out at 235 nM.
`O=C(c1ccc(C(=O)c2ccc3c(c2)OCCO3)c(C(=O)O)c1)c1ccc(N(CC2CC2)c2ccc(Cl)cc2)cn1` [Example 4, 5-(5-((4-Chlorophenyl)(cyclopropylmethyl)amino)picolinoyl)-2-(2,3-dihydrobenzo-[b][1,4]dioxine-6-carbonyl)benzoic acid]: half-maximal inhibition in series [1] (IC50) was put at 21 nM.
In the case of `COc1cccc(C(=O)c2ccc(C(=O)c3ccc(Cc4ccc(Cl)cc4)cn3)cc2C(=O)O)c1` [Example 6, 5-(5-(4-Chlorobenzyl)picolinoyl)-2-(3-methoxybenzoyl)benzoic acid], half-maximal inhibition in series [1] (IC50) required 155 nM. The solubility (thermodynamic) at 24 h in series [2] (setting [3]) is 1900 µM (≈ 924 µg/mL).
In turn, `CN(c1ccc(Cl)cc1)c1ccc(C(=O)c2ccc(C(=O)C3(c4ccccc4)CCCC3)c(C(=O)O)c2)nc1` [Example 11, 5-(5-((4-Chlorophenyl)(methyl)amino)picolinoyl)-2-(1-phenylcyclopentanecarbonyl)benzoic acid] yielded an IC50 in series [1] (Table 2) of 76 nM.
On to `COc1ccc(C2(C(=O)c3ccc(C(=O)c4ccc(N(C)c5ccc(Cl)cc5)cn4)cc3C(=O)O)CC2)cc1` [Example 10, 5-(5-((4-Chlorophenyl)(methyl)amino)picolinoyl)-2-(1-(4-methoxyphenyl)cyclopropanecarbonyl)benzoic acid], for which the IC50 in series [1] (Table 2) was 22 nM. Moreover, the solubility (thermodynamic) at 24 h in series [2] (setting [3]) was found to be 403 µM (≈ 218 µg/mL).
In series [1], `CN(c1ccc(Cl)cc1)c1ccc(C(=O)c2ccc(C(=O)c3cccc(C=O)c3)c(C(=O)O)c2)nc1` [Example 3, 5-(5-((4-Chlorophenyl)(methyl)amino)picolinoyl)-2-(3-formylbenzoyl)benzoic acid] displayed an IC50 of 52 nM.
For the compound `O=C(c1ccc(C(=O)C2(c3ccccc3)CC2)c(C(=O)O)c1)c1ccc(N(CC2CC2)c2ccc(Cl)cc2)cn1` [Example 8, 5-(5-((4-Chlorophenyl)(cyclopropylmethyl)amino)picolinoyl)-2-(1-phenylcyclopropanecarbonyl)benzoic acid], the IC50 in series [1] (Table 2) worked out at 41 nM. Moreover, the solubility (thermodynamic) at 24 h in series [2] (setting [3]) stood at 125 µM (≈ 68.9 µg/mL).
As for `CN(c1ccc(Cl)cc1)c1ccc(C(=O)c2ccc(C(=O)C3(c4ccccc4)CCCCC3)c(C(=O)O)c2)nc1` [Example 9, 5-(5-((4-Chlorophenyl)(methyl)amino)picolinoyl)-2-(1-phenylcyclohexanecarbonyl)benzoic acid], the IC50 in series [1] (Table 2) was found to be 32 nM. The solubility (thermodynamic) at 24 h in series [2] stood at 7 µM (≈ 3.87 µg/mL).
For the compound `O=C(c1ccc(Cl)cc1)c1ccc(C(=O)c2ccc(C(=O)c3ccccc3)c(C(=O)O)c2)nc1` [Example 5, 2-Benzoyl-5-(5-(4-chlorobenzoyl)picolinoyl)benzoic acid], in series [1], half-maximal inhibition (IC50) required 1290 nM.
Take `CN(c1ccc(Cl)cc1)c1ccc(C(=O)c2ccc(C(=O)C3CC3c3ccccc3)c(C(=O)O)c2)nc1` (stereo not drawn) [Example 19, 5-(5-((4-Chlorophenyl)(methyl)amino)picolinoyl)-2-(2-phenylcyclopropanecarbonyl)benzoic acid]: half-maximal inhibition in series [1] (Table 2) (IC50) was put at 141 nM.
For the compound `CN(c1ccc(Cl)cc1)c1ccc(C(=O)c2ccc(C(=O)C(C)(C)c3ccccc3)c(C(=O)O)c2)nc1` [Example 16, 5-(5-((4-Chlorophenyl)(methyl)amino)picolinoyl)-2-(2-methyl-2-phenylpropanoyl)benzoic acid], half-maximal inhibition in series [1] (Table 2) (IC50) required 55 nM.
Take `CN(c1ccc(Cl)cc1)c1ccc(C(=O)c2ccc(C(=O)c3cccc(C(Cl)Cl)c3)c(C(=O)O)c2)nc1` [Example 2, 5-(5-((4-Chlorophenyl)(methyl)amino)picolinoyl)-2-(3-(dichloromethyl)benzoyl)-benzoic acid]: the IC50 in series [1] was found to be 34 nM.
As to `COc1cccc(CC(=O)c2ccc(C(=O)c3ccc(N(C)c4ccc(Cl)cc4)cn3)cc2C(=O)O)c1` [Example 21], the IC50 in series [1] (Table 2) came out at 192 nM.
With `COc1ccc(C(=O)c2ccc(C(=O)c3ccc(N(CC4CC4)c4ccc(Cl)cc4F)cn3)cc2C(=O)O)cc1` [1:5, 5-{5-[(4-Chloro-2-fluorophenyl)(cyclopropylmethyl)amino]picolinoyl}-2-(4-methoxybenzoyl)benzoic acid], the thermodynamic solubility at 24 h in series [2] (setting [3]) came out at 2480 µM (≈ 1380 µg/mL).
Same read-out and setting: in the case of `COc1ccc(C(=O)c2ccc(C(=O)c3ccc(N(CC4CC4)c4ccc(Cl)cc4)cn3)cc2C(=O)O)cc1` [1:4, 5-{5-[(4-Chlorophenyl)(cyclopropylmethyl)amino]picolinoyl}-2-(4-methoxy-benzoyl)benzoic acid] it was 2210 µM (≈ 1200 µg/mL).
Regarding `CN(c1ccc(Cl)cc1)c1ccc(C(=O)c2ccc(C(=O)c3cccc(O)c3)c(C(=O)O)c2)nc1` [Example 7, 5-(5-((4-Chlorophenyl)(methyl)amino)picolinoyl)-2-(3-hydroxybenzoyl)benzoic acid], inhibition in series [1] was half-maximal at 83 nM (IC50).

Source of the values: patent publication US20130035358A1, “Bis Aromatic Compounds for Use as LTC4 Synthase Inhibitors” (priority 2010, published 2013).
